ChEMBL document CHEMBL1142295, “A potential new prodrug for the treatment of cystinosis: design, synthesis and in-vitro evaluation” (Bioorg Med Chem Lett, 2008)
The source made the active and inactive calls. The rule behind the calls is not given here.

Assay: Depletion of lysosomal cystine in cystinotic fibroblasts GM00008 at 50 uM after 72 hrs
Format: functional, cell-based
Conditions: Fibroblast

**Q.** With NCCS as the compound, how does the Activity read?
**A.** Active

**Q.** Which Activity does the source give for CCCCCCCCCC(=O)NCCSSCCNC(=O)CCCCCCCCC here?
**A.** Active
